Assays:
[1] = target: Prostaglandin G/H synthase 1 (Homo sapiens, UniProt P23219); assay: biochemical; format: tissue-based, Platelet; conditions: platelet;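 note: inhibition of COX-1 enzyme activity, with arachidonic acid supplied as substrate; in other assays of this panel Not Active means under 50% inhibition at 10 µM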
[2] = DRUGMATRIX: Nicotinic Acetylcholine radioligand binding (ligand: [125I] Epibatidine); format: cell membranes, Membrane; conditions: imr-32; Not Active = under 50% inhibition at 10 µM
[3] = target: Mu-type opioid receptor (Homo sapiens, UniProt P35372); assay: DRUGMATRIX: Opiate mu (OP3, MOP) radioligand binding (ligand: [3H] Diprenorphine); format: cell membranes, CHO-K1, Membrane; conditions: cho-k1; Not Active = under 50% inhibition at 10 µM
Mu-type opioid receptor, sequence (P35372 whole entry): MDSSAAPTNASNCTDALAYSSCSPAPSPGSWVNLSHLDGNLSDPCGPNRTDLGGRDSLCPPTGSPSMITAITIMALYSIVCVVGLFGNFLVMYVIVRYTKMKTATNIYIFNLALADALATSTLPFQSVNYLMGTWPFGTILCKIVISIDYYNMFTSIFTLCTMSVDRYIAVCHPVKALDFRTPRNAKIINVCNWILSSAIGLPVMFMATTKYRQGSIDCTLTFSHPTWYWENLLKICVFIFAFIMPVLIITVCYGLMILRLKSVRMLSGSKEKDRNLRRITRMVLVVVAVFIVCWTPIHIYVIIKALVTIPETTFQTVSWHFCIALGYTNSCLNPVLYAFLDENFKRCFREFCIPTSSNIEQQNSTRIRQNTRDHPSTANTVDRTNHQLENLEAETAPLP

[4] = DRUGMATRIX: Glutamate, Kainate radioligand binding (ligand: [3H] Kainic acid); format: cell membranes, Rattus norvegicus, Wistar, Brain, Membrane; conditions: Not Active = under 50% inhibition at 10 µM
[5] = target: T1, 3-hydroxy-3-methylglutaryl-coenzyme A reductase (Homo sapiens, UniProt P04035); set-up: species or system Escherichia coli;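 note: enzyme inhibition assay of HMG-CoA reductase using radiolabeled [14C]HMG-CoA as substrate; in other assays of this panel Not Active means under 50% inhibition at 10 µM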
T1 sequence (P04035 whole entry): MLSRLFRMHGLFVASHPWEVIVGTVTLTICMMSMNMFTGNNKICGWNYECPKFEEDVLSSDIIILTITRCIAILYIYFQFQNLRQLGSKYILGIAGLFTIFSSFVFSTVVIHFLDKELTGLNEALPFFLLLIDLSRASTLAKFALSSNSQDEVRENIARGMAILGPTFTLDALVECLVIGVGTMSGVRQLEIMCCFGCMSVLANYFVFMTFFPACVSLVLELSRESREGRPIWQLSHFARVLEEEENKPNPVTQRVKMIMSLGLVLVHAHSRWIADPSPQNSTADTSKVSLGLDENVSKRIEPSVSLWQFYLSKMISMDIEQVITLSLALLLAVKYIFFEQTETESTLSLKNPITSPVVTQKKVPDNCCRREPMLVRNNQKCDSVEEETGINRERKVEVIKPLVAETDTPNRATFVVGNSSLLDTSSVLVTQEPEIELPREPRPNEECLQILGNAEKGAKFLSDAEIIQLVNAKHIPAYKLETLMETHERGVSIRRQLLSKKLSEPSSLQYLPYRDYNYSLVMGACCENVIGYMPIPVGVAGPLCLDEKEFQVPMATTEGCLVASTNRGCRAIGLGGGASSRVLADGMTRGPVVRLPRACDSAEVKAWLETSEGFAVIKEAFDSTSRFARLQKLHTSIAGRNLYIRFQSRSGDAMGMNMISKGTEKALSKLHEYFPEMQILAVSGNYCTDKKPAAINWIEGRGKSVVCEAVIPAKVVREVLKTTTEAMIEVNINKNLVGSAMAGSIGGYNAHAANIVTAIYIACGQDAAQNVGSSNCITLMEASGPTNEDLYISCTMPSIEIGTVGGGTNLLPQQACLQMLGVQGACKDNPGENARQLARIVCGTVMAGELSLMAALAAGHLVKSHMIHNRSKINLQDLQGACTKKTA

[6] = DRUGMATRIX: Interleukin IL-1 radioligand binding (ligand: [125I] interleukin 1beta); format: cell membranes, Membrane; conditions: nih3t3; Not Active = under 50% inhibition at 10 µM
[7] = target: cGMP-specific 3',5'-cyclic phosphodiesterase (Homo sapiens, UniProt O76074); assay: DRUGMATRIX: Phosphodiesterase PDE5 enzyme inhibition (substrate: [3H]cGMP + cGMP); format: tissue-based; conditions: platelet; Not Active = under 50% inhibition at 10 µM
[8] = target: T2, Nitric oxide synthase, inducible (Mus musculus, UniProt P29477); set-up: species or system Escherichia coli;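 note: inhibition of iNOS enzyme activity measured with L-arginine as substrate; in other assays of this panel Not Active means under 50% inhibition at 10 µM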
T2 sequence (P29477 whole entry): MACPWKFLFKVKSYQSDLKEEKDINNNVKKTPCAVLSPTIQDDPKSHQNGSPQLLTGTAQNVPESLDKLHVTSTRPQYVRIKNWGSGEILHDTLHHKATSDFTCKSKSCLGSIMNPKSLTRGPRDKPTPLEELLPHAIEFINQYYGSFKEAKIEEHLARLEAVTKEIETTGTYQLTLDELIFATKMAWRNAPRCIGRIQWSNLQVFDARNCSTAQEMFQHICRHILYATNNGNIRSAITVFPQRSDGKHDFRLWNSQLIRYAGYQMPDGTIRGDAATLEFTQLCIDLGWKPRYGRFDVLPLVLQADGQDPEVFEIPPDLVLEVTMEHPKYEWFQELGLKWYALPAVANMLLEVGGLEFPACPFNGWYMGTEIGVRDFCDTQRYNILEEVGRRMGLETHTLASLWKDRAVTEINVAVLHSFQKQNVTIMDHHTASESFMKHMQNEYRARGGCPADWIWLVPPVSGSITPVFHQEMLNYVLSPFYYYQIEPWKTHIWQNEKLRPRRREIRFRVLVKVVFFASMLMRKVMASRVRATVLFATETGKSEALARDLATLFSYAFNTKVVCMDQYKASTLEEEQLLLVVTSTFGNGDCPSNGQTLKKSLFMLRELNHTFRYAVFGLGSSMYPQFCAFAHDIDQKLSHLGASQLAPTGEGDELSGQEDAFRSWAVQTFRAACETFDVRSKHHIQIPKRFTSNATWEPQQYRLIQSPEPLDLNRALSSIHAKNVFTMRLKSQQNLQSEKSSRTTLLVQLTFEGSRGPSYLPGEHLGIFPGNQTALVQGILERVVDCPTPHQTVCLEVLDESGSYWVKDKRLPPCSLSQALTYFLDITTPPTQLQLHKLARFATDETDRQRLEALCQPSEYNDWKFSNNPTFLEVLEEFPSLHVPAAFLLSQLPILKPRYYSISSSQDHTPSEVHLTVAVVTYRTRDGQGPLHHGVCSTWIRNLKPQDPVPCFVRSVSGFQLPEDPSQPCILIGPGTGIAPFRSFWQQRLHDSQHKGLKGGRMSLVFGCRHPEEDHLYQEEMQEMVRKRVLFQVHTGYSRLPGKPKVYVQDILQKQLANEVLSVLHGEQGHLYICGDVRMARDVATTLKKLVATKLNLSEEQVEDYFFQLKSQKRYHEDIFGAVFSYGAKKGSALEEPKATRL

[9] = DRUGMATRIX: Platelet-Derived Growth Factor (PDGF) radioligand binding (ligand: [125I] PDGF); format: cell-based; conditions: nih3t3; Not Active = under 50% inhibition at 10 µM

Prostaglandin G/H synthase 1, sequence (P23219 whole entry): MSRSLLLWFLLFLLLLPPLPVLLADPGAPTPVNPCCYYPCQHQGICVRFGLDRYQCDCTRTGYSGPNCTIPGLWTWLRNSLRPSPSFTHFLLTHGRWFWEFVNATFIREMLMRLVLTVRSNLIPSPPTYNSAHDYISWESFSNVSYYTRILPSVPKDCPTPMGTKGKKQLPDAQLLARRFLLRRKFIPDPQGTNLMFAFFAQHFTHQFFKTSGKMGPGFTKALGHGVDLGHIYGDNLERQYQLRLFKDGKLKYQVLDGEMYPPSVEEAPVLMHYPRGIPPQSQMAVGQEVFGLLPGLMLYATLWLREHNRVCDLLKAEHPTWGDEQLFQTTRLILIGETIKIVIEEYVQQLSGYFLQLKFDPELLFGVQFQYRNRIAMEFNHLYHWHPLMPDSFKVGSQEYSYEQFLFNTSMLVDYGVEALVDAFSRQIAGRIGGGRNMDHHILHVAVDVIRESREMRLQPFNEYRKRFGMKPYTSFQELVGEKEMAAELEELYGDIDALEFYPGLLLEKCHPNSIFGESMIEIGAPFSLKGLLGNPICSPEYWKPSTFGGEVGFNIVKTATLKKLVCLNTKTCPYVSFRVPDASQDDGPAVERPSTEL

COc1nc(C)nc(Cl)c1NC1=NCCN1 [MOXONIDINE]
Not Active: IC50 [1] | IC50 [2] | Ki [2] | IC50 [3] | IC50 [4] | Ki [4] | IC50 [5] | IC50 [6] | Ki [6] | IC50 [7] | IC50 [8] | IC50 [9] | Ki [9]

O=NN(CCCl)C(=O)NC1CCCCC1 [LOMUSTINE]
Not Active: IC50 [1] | IC50 [2] | Ki [2] | IC50 [3] | IC50 [4] | Ki [4] | IC50 [5] | IC50 [6] | Ki [6] | IC50 [7] | IC50 [8] | IC50 [9] | Ki [9]

O=c1ncn2nc(Sc3ccc(F)cc3F)ccc2c1-c1c(Cl)cccc1Cl [NEFLAMAPIMOD]
Not Active: IC50 [1] | IC50 [2] | Ki [2] | IC50 [3] | IC50 [4] | Ki [4] | IC50 [5] | IC50 [6] | Ki [6] | IC50 [7] | IC50 [8] | IC50 [9] | Ki [9]

CC[C@]1(O)C[C@H]2CN(CCc3c([nH]c4ccccc34)[C@@](C(=O)OC)(c3cc4c(cc3OC)N(C=O)[C@H]3[C@@](O)(C(=O)OC)[C@H](OC(C)=O)[C@]5(CC)C=CCN6CC[C@]43[C@@H]65)C2)C1 [VINCRISTINE]
Not Active: IC50 [1] | IC50 [2] | Ki [2] | IC50 [3] | IC50 [4] | Ki [4] | IC50 [5] | IC50 [6] | Ki [6] | IC50 [7] | IC50 [8] | IC50 [9] | Ki [9]

CC(=O)[C@@]1(O)CC[C@H]2[C@@H]3C[C@H](C)C4=CC(=O)CC[C@]4(C)[C@H]3CC[C@@]21C
Not Active: IC50 [1] | IC50 [2] | Ki [2] | IC50 [3] | IC50 [4] | Ki [4] | IC50 [5] | IC50 [6] | Ki [6] | IC50 [7] | IC50 [8] | IC50 [9] | Ki [9]

Cc1noc(NS(=O)(=O)c2ccc(N)cc2)c1C [SULFISOXAZOLE]
Not Active: IC50 [1] | IC50 [2] | Ki [2] | IC50 [3] | IC50 [4] | Ki [4] | IC50 [5] | IC50 [6] | Ki [6] | IC50 [7] | IC50 [8] | IC50 [9] | Ki [9]

N[C@@H](Cc1ccc(O)c(O)c1)C(=O)O [LEVODOPA]
Not Active: IC50 [1] | IC50 [2] | Ki [2] | IC50 [3] | IC50 [4] | Ki [4] | IC50 [5] | IC50 [6] | Ki [6] | IC50 [7] | IC50 [8] | IC50 [9] | Ki [9]

NS(=O)(=O)c1cc2c(cc1Cl)NC(C(Cl)Cl)NS2(=O)=O (stereo not given) [TRICHLORMETHIAZIDE]
Not Active: IC50 [1] | IC50 [2] | Ki [2] | IC50 [3] | IC50 [4] | Ki [4] | IC50 [5] | IC50 [6] | Ki [6] | IC50 [7] | IC50 [8] | IC50 [9] | Ki [9]

Nc1c2c(nc3ccccc13)CCCC2 [TACRINE]
Not Active: IC50 [1] | IC50 [2] | Ki [2] | IC50 [3] | IC50 [4] | Ki [4] | IC50 [5] | IC50 [6] | Ki [6] | IC50 [7] | IC50 [8] | IC50 [9] | Ki [9]

NC[C@H]1CC[C@H](C(=O)O)CC1 [TRANEXAMIC ACID]
Not Active: IC50 [1] | IC50 [2] | Ki [2] | IC50 [3] | IC50 [4] | Ki [4] | IC50 [5] | IC50 [6] | Ki [6] | IC50 [7] | IC50 [8] | IC50 [9] | Ki [9]
